Data reported in ChEMBL document CHEMBL5150017, “Mechanism of Action and Structure-Activity Relationship of α-Conotoxin Mr1.1 at the Human α9α10 Nicotinic Acetylcholine Receptor” (J Med Chem, 2022).
Positions of bridges follow the written chain, without caps; N, C: chain ends. Non-standard residues stand in square brackets, D forms with d. Residues, ends and D or L forms follow the SMILES beside them. ξ: configuration not given here. ξDab = NCCC(N)C(=O)O; ξDap = NCC(N)C(=O)O

Target: Neuronal acetylcholine receptor; alpha9/alpha10 (Homo sapiens) (UniProt Q9UGM1+Q9GZZ6)
Experiment: Antagonist activity at human alpha9alpha10 nAChR expressed in Xenopus laevis oocytes assessed as inhibition of ACh-induced current amplitude at -80 mV holding potential at 100 nM by two-electrode voltage clamp method
Assay type: cell-based
Settings: Oocyte

Row | Structure (SMILES) | inhibition (filed as antagonist) [%] | inhibition [%]
1 | CC[C@H](C)[C@@H]1NC(=O)[C@H](CC(=O)O)NC(=O)[C@@H]2CCCN2C(=O)[C@H](CC(N)=O)NC(=O)[C@H](CC(N)=O)NC(=O)[C@H](C(C)C)NC(=O)[C@H](CO)NC(=O)[C@@H]2CSSC[C@H](NC(=O)CN)C(=O)N[C@@H](CSSC[C@@H](C(N)=O)NC1=O)C(=O)NC(CCN)C(=O)N[C@@H](Cc1cnc[nH]1)C(=O)N1CCC[C@H]1C(=O)N[C@@H](C)C(=O)N2 (some centres undefined) (H-GCC[ξDab]HPACSVNNPDIC-NH2; disulfide 2-8, 3-16) | > 85 | 
2 | CC[C@H](C)[C@@H]1NC(=O)[C@H](CC(=O)O)NC(=O)[C@@H]2CCCN2C(=O)[C@H](CC(N)=O)NC(=O)[C@H](CC(N)=O)NC(=O)[C@H](C(C)C)NC(=O)[C@H](CO)NC(=O)[C@@H]2CSSC[C@H](NC(=O)CN)C(=O)N[C@@H](CSSC[C@@H](C(=O)N[C@@H](CC(C)C)C(N)=O)NC1=O)C(=O)N[C@@H](CO)C(=O)N[C@@H](Cc1cnc[nH]1)C(=O)N1CCC[C@H]1C(=O)N[C@@H](C)C(=O)N2 (H-GCCSHPACSVNNPDICL-NH2; disulfide 2-8, 3-16) |  | 15
3 | CC[C@H](C)[C@@H]1NC(=O)[C@H](CC(=O)O)NC(=O)[C@@H]2CCCN2C(=O)[C@H](CC(N)=O)NC(=O)[C@H](CC(N)=O)NC(=O)[C@H](CCCNC(=N)N)NC(=O)[C@H](CO)NC(=O)[C@@H]2CSSC[C@H](NC(=O)CN)C(=O)N[C@@H](CSSC[C@@H](C(N)=O)NC1=O)C(=O)N[C@@H](CO)C(=O)N[C@@H](Cc1cnc[nH]1)C(=O)N1CCC[C@H]1C(=O)N[C@@H](C)C(=O)N2 (H-GCCSHPACSRNNPDIC-NH2; disulfide 2-8, 3-16) | 60 | 
4 | CC[C@H](C)[C@@H]1NC(=O)[C@H](CC(=O)O)NC(=O)[C@@H]2CCCN2C(=O)[C@H](CC(N)=O)NC(=O)[C@H](CC(N)=O)NC(=O)[C@H](C(C)C)NC(=O)[C@H](CO)NC(=O)[C@@H]2CSSC[C@H](NC(=O)CN)C(=O)N[C@@H](CSSC[C@@H](C(=O)N[C@@H](CCCNC(=N)N)C(N)=O)NC1=O)C(=O)N[C@@H](CO)C(=O)N[C@@H](Cc1cnc[nH]1)C(=O)N1CCC[C@H]1C(=O)N[C@@H](C)C(=O)N2 (H-GCCSHPACSVNNPDICR-NH2; disulfide 2-8, 3-16) | 60 | 
5 | CC[C@H](C)[C@@H]1NC(=O)[C@H](CC(=O)O)NC(=O)[C@@H]2CCCN2C(=O)[C@H](CC(N)=O)NC(=O)[C@H](CC(N)=O)NC(=O)[C@H](CCCCN)NC(=O)[C@H](CO)NC(=O)[C@@H]2CSSC[C@H](NC(=O)CN)C(=O)N[C@@H](CSSC[C@@H](C(N)=O)NC1=O)C(=O)N[C@@H](CO)C(=O)N[C@@H](Cc1cnc[nH]1)C(=O)N1CCC[C@H]1C(=O)N[C@@H](C)C(=O)N2 (H-GCCSHPACSKNNPDIC-NH2; disulfide 2-8, 3-16) |  | < 5
6 | CC[C@H](C)[C@@H]1NC(=O)[C@H](CC(=O)O)NC(=O)[C@@H]2CCCN2C(=O)[C@H](CC(N)=O)NC(=O)[C@H](CC(N)=O)NC(=O)C(CN)NC(=O)[C@H](CO)NC(=O)[C@@H]2CSSC[C@H](NC(=O)CN)C(=O)N[C@@H](CSSC[C@@H](C(N)=O)NC1=O)C(=O)NC(CN)C(=O)N[C@@H](Cc1cnc[nH]1)C(=O)N1CCC[C@H]1C(=O)N[C@@H](C)C(=O)N2 (some centres undefined) (H-GCC[ξDap]HPACS[ξDap]NNPDIC-NH2; disulfide 2-8, 3-16) | > 95 | 
7 | CC[C@H](C)[C@@H]1NC(=O)[C@H](CC(=O)O)NC(=O)[C@@H]2CCCN2C(=O)[C@H](CC(N)=O)NC(=O)[C@H](CC(N)=O)NC(=O)[C@H](C(C)C)NC(=O)[C@H](CO)NC(=O)[C@@H]2CSSC[C@H](NC(=O)CN)C(=O)N[C@@H](CSSC[C@@H](C(N)=O)NC1=O)C(=O)N[C@@H](CO)C(=O)N[C@@H](CCCNC(=N)N)C(=O)N1CCC[C@H]1C(=O)N[C@@H](C)C(=O)N2 (H-GCCSRPACSVNNPDIC-NH2; disulfide 2-8, 3-16) |  | 10
8 | CC[C@H](C)[C@@H]1NC(=O)[C@H](CC(=O)O)NC(=O)[C@@H]2CCCN2C(=O)[C@H](CC(N)=O)NC(=O)[C@H](CC(N)=O)NC(=O)[C@H](C(C)C)NC(=O)C(CCN)NC(=O)[C@@H]2CSSC[C@H](NC(=O)CN)C(=O)N[C@@H](CSSC[C@@H](C(N)=O)NC1=O)C(=O)N[C@@H](CO)C(=O)N[C@@H](Cc1cnc[nH]1)C(=O)N1CCC[C@H]1C(=O)N[C@@H](C)C(=O)N2 (some centres undefined) (H-GCCSHPAC[ξDab]VNNPDIC-NH2; disulfide 2-8, 3-16) |  | 15
9 | CC[C@H](C)[C@@H]1NC(=O)[C@H](CC(=O)O)NC(=O)[C@@H]2CCCN2C(=O)[C@H](CC(N)=O)NC(=O)[C@H](CC(N)=O)NC(=O)[C@H](C(C)C)NC(=O)[C@H](Cc2ccc(O)cc2)NC(=O)[C@@H]2CSSC[C@H](NC(=O)CN)C(=O)N[C@@H](CSSC[C@@H](C(N)=O)NC1=O)C(=O)N[C@@H](CO)C(=O)N[C@@H](Cc1cnc[nH]1)C(=O)N1CCC[C@H]1C(=O)N[C@@H](C)C(=O)N2 (H-GCCSHPACYVNNPDIC-NH2; disulfide 2-8, 3-16) |  | 5
10 | CC[C@H](C)[C@@H]1NC(=O)[C@H](CC(=O)O)NC(=O)[C@@H]2CCCN2C(=O)[C@H](CC(N)=O)NC(=O)[C@H](CC(N)=O)NC(=O)[C@H](C(C)C)NC(=O)C(CN)NC(=O)[C@@H]2CSSC[C@H](NC(=O)CN)C(=O)N[C@@H](CSSC[C@@H](C(N)=O)NC1=O)C(=O)N[C@@H](CO)C(=O)N[C@@H](Cc1cnc[nH]1)C(=O)N1CCC[C@H]1C(=O)N[C@@H](C)C(=O)N2 (some centres undefined) (H-GCCSHPAC[ξDap]VNNPDIC-NH2; disulfide 2-8, 3-16) | 80 | 
11 | CC[C@H](C)[C@@H]1NC(=O)[C@H](CC(=O)O)NC(=O)[C@@H]2CCCN2C(=O)[C@H](CC(N)=O)NC(=O)[C@H](CC(N)=O)NC(=O)[C@H](C(C)C)NC(=O)C(CN)NC(=O)[C@@H]2CSSC[C@H](NC(=O)CN)C(=O)N[C@@H](CSSC[C@@H](C(N)=O)NC1=O)C(=O)NC(CN)C(=O)N[C@@H](Cc1cnc[nH]1)C(=O)N1CCC[C@H]1C(=O)N[C@@H](C)C(=O)N2 (some centres undefined) (H-GCC[ξDap]HPAC[ξDap]VNNPDIC-NH2; disulfide 2-8, 3-16) | > 95 | 
12 | CC[C@H](C)[C@@H]1NC(=O)[C@H](CC(=O)O)NC(=O)[C@@H]2CCCN2C(=O)[C@H](CC(N)=O)NC(=O)[C@H](CC(N)=O)NC(=O)[C@H](C(C)C)NC(=O)[C@H](CO)NC(=O)[C@@H]2CSSC[C@H](NC(=O)CN)C(=O)N[C@@H](CSSC[C@@H](C(N)=O)NC1=O)C(=O)N[C@@H](CCCNC(=N)N)C(=O)N[C@@H](Cc1cnc[nH]1)C(=O)N1CCC[C@H]1C(=O)N[C@@H](C)C(=O)N2 (H-GCCRHPACSVNNPDIC-NH2; disulfide 2-8, 3-16) | > 85 | 
13 | CC[C@H](C)[C@@H]1NC(=O)[C@H](CC(=O)O)NC(=O)[C@@H]2CCCN2C(=O)[C@H](CC(N)=O)NC(=O)[C@H](CC(N)=O)NC(=O)C(CN)NC(=O)[C@H](CO)NC(=O)[C@@H]2CSSC[C@H](NC(=O)CN)C(=O)N[C@@H](CSSC[C@@H](C(N)=O)NC1=O)C(=O)N[C@@H](CO)C(=O)N[C@@H](Cc1cnc[nH]1)C(=O)N1CCC[C@H]1C(=O)N[C@@H](C)C(=O)N2 (some centres undefined) (H-GCCSHPACS[ξDap]NNPDIC-NH2; disulfide 2-8, 3-16) | > 90 | 
14 | CC[C@H](C)[C@@H]1NC(=O)[C@H](CC(=O)O)NC(=O)[C@@H]2CCCN2C(=O)[C@H](CC(N)=O)NC(=O)[C@H](CC(N)=O)NC(=O)[C@H](CC(=O)O)NC(=O)[C@H](CO)NC(=O)[C@@H]2CSSC[C@H](NC(=O)CN)C(=O)N[C@@H](CSSC[C@@H](C(N)=O)NC1=O)C(=O)N[C@@H](CO)C(=O)N[C@@H](Cc1cnc[nH]1)C(=O)N1CCC[C@H]1C(=O)N[C@@H](C)C(=O)N2 (H-GCCSHPACSDNNPDIC-NH2; disulfide 2-8, 3-16) |  | < 5
